From PubChem BioAssay (NCI)
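The concentration for 50% growth inhibition is given as GI50. TGI marks complete inhibition of growth.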

How the values were obtained:
Test in all cases: NCI-60 cell line screen, 384-well format
LOX IMVI melanoma = tested on: LOX IMVI melanoma
NCI-H23 lung = tested on: NCI-H23 lung
SK-OV-3 ovarian = tested on: SK-OV-3 ovarian
T-47D breast = tested on: T-47D breast
BT-549 breast = tested on: BT-549 breast
CCRF-CEM leukemia = tested on: CCRF-CEM leukemia
RPMI-8226 leukemia = tested on: RPMI-8226 leukemia
CAKI-1 renal = tested on: CAKI-1 renal
TK-10 renal = tested on: TK-10 renal
IGROV1 ovarian = tested on: IGROV1 ovarian
SF-268 CNS = tested on: SF-268 CNS
HCC-2998 colon = tested on: HCC-2998 colon
A498 renal = tested on: A498 renal
HL-60(TB) leukemia = tested on: HL-60(TB) leukemia
RXF 393 renal = tested on: RXF 393 renal
MALME-3M melanoma = tested on: MALME-3M melanoma
UACC-62 melanoma = tested on: UACC-62 melanoma
NCI/ADR-RES ovarian = tested on: NCI/ADR-RES ovarian
MCF7 breast = tested on: MCF7 breast
OVCAR-5 ovarian = tested on: OVCAR-5 ovarian
KM12 colon = tested on: KM12 colon
SF-539 CNS = tested on: SF-539 CNS
SK-MEL-28 melanoma = tested on: SK-MEL-28 melanoma
NCI-H226 lung = tested on: NCI-H226 lung
COLO 205 colon = tested on: COLO 205 colon
OVCAR-3 ovarian = tested on: OVCAR-3 ovarian
MDA-MB-231 breast = tested on: MDA-MB-231 breast
SNB-19 CNS = tested on: SNB-19 CNS
HT29 colon = tested on: HT29 colon

## CC1(COc2ccc3c(c2)ncn3-c2ccc3cccc(N4CCC(N)CC4)c3n2)COC1
LOX IMVI melanoma
  GI50: 0.636 µM
  TGI: 1.89 µM
NCI-H23 lung
  GI50: 0.622 µM
  TGI: 1.88 µM
SK-OV-3 ovarian
  GI50: 1.61 µM
  TGI: 3 µM
T-47D breast
  GI50: 2.07 µM
  TGI: 3.56 µM
BT-549 breast
  GI50: 0.37 µM
  TGI: 1.41 µM
CCRF-CEM leukemia
  GI50: 0.365 µM
  TGI: 1.4 µM
RPMI-8226 leukemia
  GI50: 0.242 µM
  TGI: 0.708 µM
CAKI-1 renal
  GI50: 1 µM
  TGI: 2.23 µM
TK-10 renal
  GI50: 1.71 µM
  TGI: 3.68 µM
IGROV1 ovarian
  GI50: 1.67 µM
  TGI: 3.08 µM
SF-268 CNS
  GI50: 1.16 µM
  TGI: 2.44 µM
HCC-2998 colon
  GI50: 1.39 µM
  TGI: 2.73 µM
A498 renal
  GI50: 1.67 µM
  TGI: 3.04 µM
HL-60(TB) leukemia
  GI50: 0.275 µM
  TGI: 0.901 µM
RXF 393 renal
  GI50: 1.56 µM
  TGI: 2.91 µM
MALME-3M melanoma
  GI50: 1.85 µM
  TGI: 3.25 µM
UACC-62 melanoma
  GI50: 1.46 µM
  TGI: 2.77 µM
NCI/ADR-RES ovarian
  GI50: 1.71 µM
  TGI: 3.39 µM
MCF7 breast
  GI50: 1.35 µM
  TGI: 2.65 µM
OVCAR-5 ovarian
  GI50: 1.73 µM
  TGI: 3.41 µM
KM12 colon
  GI50: 0.0395 µM
  TGI: 1.45 µM
SF-539 CNS
  GI50: 0.501 µM
  TGI: 1.93 µM
SK-MEL-28 melanoma
  GI50: 1.68 µM
  TGI: 3.05 µM
NCI-H226 lung
  GI50: 1.56 µM
  TGI: 2.99 µM
COLO 205 colon
  GI50: 0.482 µM
  TGI: 1.63 µM
OVCAR-3 ovarian
  GI50: 1.56 µM
  TGI: 3.01 µM
MDA-MB-231 breast
  GI50: 1.06 µM
  TGI: 2.5 µM
SNB-19 CNS
  GI50: 1.98 µM
  TGI: 4.52 µM
HT29 colon
  GI50: 1.63 µM
  TGI: 3.05 µM
